The values below come from patent publication US20050019746A1, “Apoptosis-related kinase/GPCRs” (EiRx Therapeutics Limited, priority 2003, published 2005).

What all share (format): cell-based, human
The subject of one series is A549 cells. Kind of series: Anchorage Independence/Soft Agar Assay, A549. Also noted: PERCENTAGE SURVIVAL RELATIVE TO MS, A549, n = 2: tested at 2 µg. Conditions: soft agar. Here is the method:
(§1) The Anchorage Independence/Soft Agar Assay allows assessment of the influence of modulation of gene expression on clonal tumouroid formation by observing and quantifying tumouroid morphology and colony number over an extended period of logarithmic growth thereby ascertaining any cell death is induced.
(§2) Cells are seeded into a 6-well plate and allowed to adhere overnight at 37° C. in a humidified atmosphere containing 5% CO2 in air. Cells are next transfected with siRNA Oligomers, at a concentration of 2 μg, against the genes of interest. Transfections continued for 4 hrs after which the transfection solution is removed and cells are refed with fresh medium and allowed incubate overnight. Transfected cells are next harvested for seeding into soft agar assay as described below. Cells are seeded at 5×10^4 cells per well of a 6 well plate and incubated over a 12/14-Day period whilst proliferating in a 0.05% Agar/Medium cell suspension at 37° C. in a humidified atmosphere containing 5% CO2 in air. Colonies formed are subsequently stained with Crystal Violet, their morphology is assessed and colonies formed are enumerated at a 4× magnification.
(§3) The cytotoxic effect of each gene is determined by a reduction in colony number compared to our MS control, but any influence on the morphology of the colony is also noted.
(§4) Examples of genes with a cytotoxic effect on knockdown as detected by the soft agar assay are outlined in Table 14. Table 14 gives the percentage survival of the indicated cell lines post transfection with siRNA oligomers to target genes relative to that of the missense in an anchorage independent assay. As an internal reference, the known survival gene Survivin was also targeted by siRNA. This table illustrates the magnitude of cytotoxicity induced by the knockdown of each target gene compared to the MS control i.e. the number of colonies formed are stained with Crystal violet and enumerated visually as discussed.

Another series relates to HCT15 cells. The series can be described thus: Anchorage Independence/Soft Agar Assay, HCT15. Also noted: PERCENTAGE SURVIVAL RELATIVE TO MS, HCT15, n = 2: tested at 2 µg; PERCENTAGE SURVIVAL RELATIVE TO MS, HCT15, n = 1: tested at 2 µg siRNA. Conditions: soft agar. Here is the method: as §1, §2, §3, §4
Another series relates to MCF7 cells. The series can be described thus: Anchorage Independence/Soft Agar Assay, MCF7. Conditions: soft agar. Also noted: PERCENTAGE SURVIVAL RELATIVE TO MS, MCF7, n = 2: tested at 2 µg. The protocol: as §1, §2, §3, §4
A further series concerns U251 cells. The series can be described thus: Anchorage Independence/Soft Agar Assay, U251. As to conditions: soft agar, experiment n = 1. Here is the method: as §1
as §2, with “Cells are seeded at 5×10^4 cells per well of a 6 well plate and incubated over a 12/14-Day period whilst proliferating in a 0.05% Agar/Medium cell suspension at 37° C. in a humidified atmosphere containing 5% CO2 in air.” left out
as §3
(§5) Examples of genes with a cytotoxic effect on knockdown as detected by the soft agar assay are outlined in Table 14. […]

In series [1] the test system is PC3 cells. The series can be described thus: Anchorage Independence/Soft Agar Assay, PC3. As to conditions: soft agar, experiment n = 1. Here is the method: as §1
as §2, with “Cells are seeded at 5×10^4 cells per well of a 6 well plate and incubated over a 12/14-Day period whilst proliferating in a 0.05% Agar/Medium cell suspension at 37° C. in a humidified atmosphere containing 5% CO2 in air.” left out
as §3, §5

Another series concerns cancer cell lines. Kind of series: Anchorage Independence/Soft Agar Assay, summary over the cell lines. As to conditions: 14-day anchorage independent assay, over the cell lines examined. Here is the method:
as §1, §2, §3
As an internal reference, the known survival gene ‘Survivin’ was also targeted by siRNA.

For series [2], the system named is PC3 cells. Kind of series: Cell Migration Assay (Chemicon ECM550, Boyden Chamber). As to conditions: 48 hours post siRNA transfection, 24-hour migration, compared to missense and UPA controls. The protocol:
Cells are seeded into a 6-well plate and allowed to adhere overnight at 37° C. in a humidified atmosphere containing 5% CO2 in air. Cells are next transfected with siRNA oligonucleotides, at a concentration of 2 μg/ml, against the genes of interest, as described in detail in Example 5. Transfections are continued for 4 hrs after which the transfection solution is removed and cells are refed with fresh medium and allowed incubate overnight. Transfected cells are next harvested for seeding into migration assay as described below.
The Chemicon Cell Migration Assay (ECM550) is used to quantify the number of PC3 cells that successfully migrate across a Boyden Chamber towards a chemoattractant over a 24-hour incubation period. Assessment of PC3 cell migration is performed routinely 48 hours post siRNA Transfection. The effect of reducing the expression of genes of interest is compared to that of a missense control oligomer and to the influence of UPA knockdown, which is reported in the literature to decrease PC3 cell migration. The Migration Assay is performed as per manufacturers inductions. Results are illustrated in FIGS. 39 to 41.
Cells were plated and transfected with the indicated siRNA as described above. Migration of PC3 cells was tracked using a fluorescent dye. Consequently increases in fluorescent units correlates positively with increased migration.

On to “siRNA CNK/PRK: sense UCGUAGUGCUUGUACUUACtt, antisense GUAAGUACAAGCACUACGAtt (sense UCGUAGUGCUUGUACUUACTT; antisense GUAAGUACAAGCACUACGATT; chemistry not given here)”, for which, in the series on A549 cells (experiment n = 1), the “PERCENTAGE SURVIVAL RELATIVE TO MS, A549, n = 1” value is on record as 91%. The “PERCENTAGE SURVIVAL RELATIVE TO MS, A549, n = 2” value in the series on A549 cells (experiment n = 2) amounted to 39.6%. Further, the “PERCENTAGE SURVIVAL RELATIVE TO MS, HCT15, n = 1” value with HCT15 cells (experiment n = 1) was found to be 38.6%. In addition, the “PERCENTAGE SURVIVAL RELATIVE TO MS, HCT15, n = 2” value with HCT15 cells (experiment n = 2) turned out to be 72.3%. In addition, the “PERCENTAGE SURVIVAL RELATIVE TO MS, MCF7, n = 1” value in the series with MCF7 cells (experiment n = 1) was determined as 98.2%. The “PERCENTAGE SURVIVAL RELATIVE TO MS, MCF7, n = 2” value in the series with MCF7 cells (experiment n = 2) is given as 66.3%. In the series on U251 cells, the “PERCENTAGE SURVIVAL RELATIVE TO MS, U251, n = 1” value turned out to be 13.5%. In addition, in the series with PC3 cells [1], the “PERCENTAGE SURVIVAL RELATIVE TO MS, PC3, n = 1” value is given as 10%. The “cell death / apoptosis in the soft agar assay” value in the series with cancer cell lines was “induced toxicity consistently in the HCT15 cell line”. The “migration of PC3 cells” value with PC3 cells [2] was “increases the ability of cancer cells to migrate”.
